Results: patent US10494332B2, “Protein tyrosine phosphatases or SHP2 inhibitors and uses thereof” (Indiana University Research and Technology Corporation, priority 2015, dated 2019)
Where “and” joins values, the source holds several entries; their conditions need not be identical. Identical values can stand only once. Like-named read-outs stand apart in the source and are kept apart here.

How the values were obtained:
[1] = biological target: T1, LYP (Homo sapiens, UniProt Q9Y2R2); assay: PTP inhibition assay (pNPP); type: biochemical; settings: pNPP at Km, pH 7.0, 25° C.
T1 sequence (Q9Y2R2 1-807): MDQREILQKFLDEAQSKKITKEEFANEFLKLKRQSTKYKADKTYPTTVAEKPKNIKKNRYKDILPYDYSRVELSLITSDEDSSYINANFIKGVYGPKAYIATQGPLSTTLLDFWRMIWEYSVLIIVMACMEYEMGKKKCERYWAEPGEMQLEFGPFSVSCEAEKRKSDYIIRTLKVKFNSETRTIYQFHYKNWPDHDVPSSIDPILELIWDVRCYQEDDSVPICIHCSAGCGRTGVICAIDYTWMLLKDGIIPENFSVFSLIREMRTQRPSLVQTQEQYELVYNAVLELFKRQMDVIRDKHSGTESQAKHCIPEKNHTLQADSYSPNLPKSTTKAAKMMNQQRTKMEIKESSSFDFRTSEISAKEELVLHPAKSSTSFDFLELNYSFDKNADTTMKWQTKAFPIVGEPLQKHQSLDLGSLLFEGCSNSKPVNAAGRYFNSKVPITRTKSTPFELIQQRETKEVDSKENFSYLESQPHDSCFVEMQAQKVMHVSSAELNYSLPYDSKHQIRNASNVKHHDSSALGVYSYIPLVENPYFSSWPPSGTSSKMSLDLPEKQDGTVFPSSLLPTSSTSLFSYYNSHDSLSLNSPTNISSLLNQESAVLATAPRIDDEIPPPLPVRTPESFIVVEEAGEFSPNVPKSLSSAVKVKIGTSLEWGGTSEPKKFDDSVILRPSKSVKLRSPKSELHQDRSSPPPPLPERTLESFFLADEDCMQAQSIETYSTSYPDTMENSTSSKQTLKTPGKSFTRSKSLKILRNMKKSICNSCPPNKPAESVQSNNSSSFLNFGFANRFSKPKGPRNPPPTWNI

[2] = tested on: M. tuberculosis H37Rv; assay: Chronic TB infection in guinea pigs, adjunctive treatment with HRZ; type: in vivo, guinea pig; settings: added to the standard regimen HRZ, after 6 weeks of treatment
[3] = biological target: T2, PTPH1 (Homo sapiens, UniProt P26045); assay: PTP inhibition assay (pNPP); type: biochemical
T2 sequence (P26045 1-913): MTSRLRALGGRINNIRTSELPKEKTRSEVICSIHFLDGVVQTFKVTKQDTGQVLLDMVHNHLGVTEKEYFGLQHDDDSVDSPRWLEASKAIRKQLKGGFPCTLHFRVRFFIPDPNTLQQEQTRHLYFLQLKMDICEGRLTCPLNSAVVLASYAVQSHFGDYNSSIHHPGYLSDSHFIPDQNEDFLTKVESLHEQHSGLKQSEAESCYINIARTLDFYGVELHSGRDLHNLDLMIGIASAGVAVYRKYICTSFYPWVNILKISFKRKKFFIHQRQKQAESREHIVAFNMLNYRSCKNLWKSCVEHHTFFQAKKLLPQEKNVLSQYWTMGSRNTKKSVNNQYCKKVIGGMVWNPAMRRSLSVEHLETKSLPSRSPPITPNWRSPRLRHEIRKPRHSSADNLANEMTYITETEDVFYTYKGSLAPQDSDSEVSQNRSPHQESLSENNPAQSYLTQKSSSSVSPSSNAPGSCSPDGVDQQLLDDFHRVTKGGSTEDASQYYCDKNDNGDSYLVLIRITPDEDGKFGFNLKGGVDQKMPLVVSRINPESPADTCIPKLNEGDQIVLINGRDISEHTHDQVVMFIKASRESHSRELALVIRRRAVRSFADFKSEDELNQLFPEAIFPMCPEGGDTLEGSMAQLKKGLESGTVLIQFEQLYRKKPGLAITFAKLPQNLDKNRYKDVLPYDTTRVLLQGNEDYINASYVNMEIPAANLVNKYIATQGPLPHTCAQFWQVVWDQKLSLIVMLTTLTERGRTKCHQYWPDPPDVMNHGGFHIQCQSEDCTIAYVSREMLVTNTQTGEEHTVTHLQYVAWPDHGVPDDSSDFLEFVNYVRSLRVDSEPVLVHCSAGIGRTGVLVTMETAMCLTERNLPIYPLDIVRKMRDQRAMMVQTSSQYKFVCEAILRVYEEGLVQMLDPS

[4] = biological target: PTPσ (Homo sapiens, UniProt Q13332); assay: PTP inhibition assay (pNPP); type: biochemical
[5] = biological target: T3, MKP3 (Homo sapiens, UniProt Q16828); assay: PTP inhibition assay (pNPP); type: biochemical
T3 sequence (Q16828 1-381): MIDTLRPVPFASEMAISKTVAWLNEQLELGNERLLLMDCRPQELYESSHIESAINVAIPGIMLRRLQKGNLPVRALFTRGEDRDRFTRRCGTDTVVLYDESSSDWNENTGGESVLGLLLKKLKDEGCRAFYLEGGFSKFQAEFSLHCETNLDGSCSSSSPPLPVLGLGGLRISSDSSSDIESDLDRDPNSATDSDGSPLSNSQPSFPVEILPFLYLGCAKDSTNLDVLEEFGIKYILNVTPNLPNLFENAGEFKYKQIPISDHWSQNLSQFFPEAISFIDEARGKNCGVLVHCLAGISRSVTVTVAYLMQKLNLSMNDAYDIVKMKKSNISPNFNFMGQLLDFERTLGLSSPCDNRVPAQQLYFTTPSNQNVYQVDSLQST

[6] = biological target: T4, Ssu72 (Homo sapiens, UniProt Q9NP77); assay: PTP inhibition assay (pNPP); type: biochemical
T4 sequence (Q9NP77 1-194): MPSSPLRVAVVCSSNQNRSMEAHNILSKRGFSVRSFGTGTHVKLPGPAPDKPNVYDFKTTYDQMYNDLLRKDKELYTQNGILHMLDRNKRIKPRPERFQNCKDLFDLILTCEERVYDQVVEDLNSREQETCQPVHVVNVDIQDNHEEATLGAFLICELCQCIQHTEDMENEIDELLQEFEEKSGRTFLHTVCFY

[7] = biological target: T5, VHZ (Homo sapiens, UniProt Q9BVJ7); assay: PTP inhibition assay (pNPP); type: biochemical
T5 sequence (Q9BVJ7 1-150): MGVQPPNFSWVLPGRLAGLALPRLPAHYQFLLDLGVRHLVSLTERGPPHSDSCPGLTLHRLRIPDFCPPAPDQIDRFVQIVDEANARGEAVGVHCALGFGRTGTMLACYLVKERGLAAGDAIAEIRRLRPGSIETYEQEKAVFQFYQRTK

[8] = Water solubility; type: physicochemical
[9] = pNPP at Km, pH 7.0, 25° C., read-out: IC50 Ssu72

Sequence of PTPσ (Q13332 30-1948): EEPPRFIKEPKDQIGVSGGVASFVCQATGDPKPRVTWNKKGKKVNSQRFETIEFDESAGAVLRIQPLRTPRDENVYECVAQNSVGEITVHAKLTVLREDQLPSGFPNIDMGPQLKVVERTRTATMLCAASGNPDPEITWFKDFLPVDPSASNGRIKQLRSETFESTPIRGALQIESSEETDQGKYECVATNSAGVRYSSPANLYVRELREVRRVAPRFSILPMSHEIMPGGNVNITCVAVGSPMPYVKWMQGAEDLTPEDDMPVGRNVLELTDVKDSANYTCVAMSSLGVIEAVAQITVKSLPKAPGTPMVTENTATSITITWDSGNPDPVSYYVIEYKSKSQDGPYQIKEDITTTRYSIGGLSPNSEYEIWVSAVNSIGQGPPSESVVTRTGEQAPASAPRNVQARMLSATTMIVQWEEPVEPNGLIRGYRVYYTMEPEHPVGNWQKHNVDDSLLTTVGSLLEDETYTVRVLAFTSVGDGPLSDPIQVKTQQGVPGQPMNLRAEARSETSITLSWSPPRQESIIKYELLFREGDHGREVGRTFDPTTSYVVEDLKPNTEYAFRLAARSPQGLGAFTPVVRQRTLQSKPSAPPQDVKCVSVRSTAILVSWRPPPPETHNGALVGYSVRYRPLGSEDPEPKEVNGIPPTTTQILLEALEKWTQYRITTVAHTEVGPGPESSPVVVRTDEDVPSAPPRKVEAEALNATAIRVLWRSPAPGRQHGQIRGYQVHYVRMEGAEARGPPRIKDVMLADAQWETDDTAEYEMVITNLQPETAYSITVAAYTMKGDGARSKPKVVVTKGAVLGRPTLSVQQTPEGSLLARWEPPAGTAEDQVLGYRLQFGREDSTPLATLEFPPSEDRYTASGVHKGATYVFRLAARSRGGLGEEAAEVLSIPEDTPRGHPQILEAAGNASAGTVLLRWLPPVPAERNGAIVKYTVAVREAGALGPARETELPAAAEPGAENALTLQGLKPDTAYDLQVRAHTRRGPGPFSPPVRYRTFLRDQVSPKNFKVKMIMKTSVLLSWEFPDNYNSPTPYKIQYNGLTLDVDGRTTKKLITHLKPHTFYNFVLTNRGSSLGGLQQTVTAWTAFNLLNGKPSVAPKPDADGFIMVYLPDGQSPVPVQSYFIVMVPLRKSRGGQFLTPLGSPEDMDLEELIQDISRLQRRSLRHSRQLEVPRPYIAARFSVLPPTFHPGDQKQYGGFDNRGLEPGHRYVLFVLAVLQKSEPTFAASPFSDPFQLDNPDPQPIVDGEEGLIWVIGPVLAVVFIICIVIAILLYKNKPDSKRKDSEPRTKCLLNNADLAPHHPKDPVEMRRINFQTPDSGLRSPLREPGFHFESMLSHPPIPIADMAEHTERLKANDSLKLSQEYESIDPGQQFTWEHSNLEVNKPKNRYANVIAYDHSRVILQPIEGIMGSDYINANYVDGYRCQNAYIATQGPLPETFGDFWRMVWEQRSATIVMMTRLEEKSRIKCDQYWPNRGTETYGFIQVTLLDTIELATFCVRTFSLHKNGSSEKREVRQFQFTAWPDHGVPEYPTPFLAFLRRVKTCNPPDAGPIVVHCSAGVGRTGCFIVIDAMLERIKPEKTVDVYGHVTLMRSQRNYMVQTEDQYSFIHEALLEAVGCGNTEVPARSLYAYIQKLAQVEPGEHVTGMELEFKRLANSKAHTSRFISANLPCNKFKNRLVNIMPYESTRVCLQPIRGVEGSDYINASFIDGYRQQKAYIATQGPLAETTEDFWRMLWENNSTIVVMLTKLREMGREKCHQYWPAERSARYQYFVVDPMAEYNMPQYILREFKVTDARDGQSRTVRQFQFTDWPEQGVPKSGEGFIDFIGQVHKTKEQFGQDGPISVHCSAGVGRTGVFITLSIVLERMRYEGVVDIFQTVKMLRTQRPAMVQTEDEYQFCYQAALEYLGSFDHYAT

| SMILES | IC50 [1] | Further reduction of mean lung CFU relative to HRZ [2] | IC50 [3] | IC50 ([4]; read-out: IC50 PTPσ) | IC50 [5] | IC50 [6, 9] | IC50 ([6]; IC50 Ssu72) | IC50 [7] | IC50 [4] | solubility [8] |
| --- | --- | --- | --- | --- | --- | --- | --- | --- | --- | --- |
| Cc1c(Br)cc(NC(=O)CS(=O)(=O)O)cc1Br | > 100 µM | 0.14 log10 |  |  |  |  |  |  |  |  |
| O=C(CS(=O)(=O)O)Nc1ccc2nc(C(F)(F)F)[nH]c2c1 | > 100 µM |  | > 100 µM | > 100 µM | > 100 µM | > 100 µM |  |  |  |  |
| O=C(CS(=O)(=O)O)Nc1cnc2ccccc2c1 | > 100 µM |  | > 100 µM | > 100 µM | > 100 µM | > 100 µM |  |  |  |  |
| O=C(NCCNC(=O)C(c1ccccc1)S(=O)(=O)O)c1cccc(C(=O)c2ccccc2)c1 (centres unmarked) [Compound L319-02-A60] | > 200 µM |  |  |  |  | > 200 µM |  |  |  |  |
| O=C(NCc1ccc(NC(=O)C(c2ccccc2)S(=O)(=O)O)cc1)c1ccccc1-c1ccc(C(F)(F)F)cc1 (centres unmarked) [Compound L319-05-A64] | 62 µM |  |  |  |  | 170 µM |  |  |  |  |
| CCCCc1ccc(NC(=O)C(=O)Nc2ccccc2NC(=O)C(c2ccccc2)S(=O)(=O)O)cc1 (centres unmarked) [Compound L319-21-M06] | > 50 µM |  |  |  |  | > 50 µM |  |  |  |  |
| O=C(Nc1cccc(OCc2ccccc2)c1)C(=O)Nc1ccccc1NC(=O)C(c1ccccc1)S(=O)(=O)O (centres unmarked) [Compound L319-21-M52] | > 50 µM |  |  |  |  | > 50 µM |  |  |  |  |
| Cc1c(Br)cc(NC(=O)C(c2ccccc2)S(=O)(=O)O)cc1Br (centres unmarked) [Compound L319M34] |  |  |  |  |  |  | > 100 µM |  |  |  |
| O=C(Nc1ccc(OCc2ccccc2)c(Cl)c1)C(c1ccccc1)S(=O)(=O)O (centres unmarked) [Compound L319M50] | > 200 µM |  |  |  |  | 66.6 µM |  |  |  |  |
| O=C(Nc1cccc(OCc2ccccc2)c1)C(c1ccccc1)S(=O)(=O)O (centres unmarked) [Compound L319M52] | > 200 µM |  | > 200 µM | > 200 µM | > 200 µM | 97.6 µM |  | > 200 µM |  |  |
| O=C(Nc1ccc2nc(C(F)(F)F)[nH]c2c1)C(c1ccccc1)S(=O)(=O)O (centres unmarked) [Compound L319M54] | > 200 µM |  |  |  | > 200 µM | > 200 µM |  | > 200 µM | > 200 µM |  |
| O=C(Nc1ccc(N2CCOCC2)cc1)C(c1ccccc1)S(=O)(=O)O (centres unmarked) [Compound L319M68] | > 200 µM |  |  |  | > 200 µM | > 200 µM |  |  | > 200 µM |  |
| O=C(Nc1cnc2ccccc2c1)C(c1ccccc1)S(=O)(=O)O (centres unmarked) [Compound L319M88] | > 200 µM |  |  |  | > 200 µM | > 200 µM |  |  | > 200 µM |  |
| O=C(Nc1ccc(-c2ccccc2)cc1)C(c1ccccc1)S(=O)(=O)O (centres unmarked) [Compound L319N08] | > 200 µM |  |  |  |  |  | 72.9 µM |  |  |  |
| O=C(Nc1nc2ccccc2s1)C(c1ccccc1)S(=O)(=O)O (centres unmarked) [Compound L319N15] | > 200 µM and 190 µM |  |  |  | > 200 µM | 69 µM |  | > 200 µM | > 200 µM |  |
| O=C(C(c1ccccc1)S(=O)(=O)O)N1CCC(Cc2ccccc2)CC1 (centres unmarked) [Compound L319N46] | > 200 µM |  | > 200 µM | > 200 µM | > 200 µM | > 200 µM |  | > 200 µM |  | > 10000 µg/mL |
| O=C(C(c1ccccc1)S(=O)(=O)O)N1CCC(c2ccc(Cl)c(Cl)c2)CC1 (centres unmarked) [Compound L319N47] | 42 µM |  | 30 µM | > 200 µM | > 200 µM | > 200 µM |  | 80 µM |  | > 10000 µg/mL |
| O=C(C(c1ccccc1)S(=O)(=O)O)N1CCCC2CCCCC21 (centres unmarked) [Compound L319N53] | > 200 µM |  | > 200 µM | > 200 µM | > 200 µM | > 200 µM |  | > 200 µM |  | > 10000 µg/mL |
| O=C(CS(=O)(=O)O)Nc1nc2ccc([N+](=O)[O-])cc2s1 [Compound L335N15-07] | > 100 µM |  | > 100 µM | > 100 µM | > 100 µM | > 100 µM |  |  |  |  |
| O=C(CS(=O)(=O)O)Nc1nc2ccccc2s1 [Compound L335N15] | > 100 µM |  | > 100 µM | > 100 µM | > 100 µM | > 100 µM |  |  |  |  |
